{
  "source": "ChEMBL document CHEMBL1201862",
  "about": "“PubChem BioAssay data set” (2004)",
  "key": {"[1]": {"molecular_target": "Disintegrin and metalloproteinase domain-containing protein 17 (Homo sapiens, UniProt P78536)", "sequence (P78536 whole entry, the tested form may be a part)": "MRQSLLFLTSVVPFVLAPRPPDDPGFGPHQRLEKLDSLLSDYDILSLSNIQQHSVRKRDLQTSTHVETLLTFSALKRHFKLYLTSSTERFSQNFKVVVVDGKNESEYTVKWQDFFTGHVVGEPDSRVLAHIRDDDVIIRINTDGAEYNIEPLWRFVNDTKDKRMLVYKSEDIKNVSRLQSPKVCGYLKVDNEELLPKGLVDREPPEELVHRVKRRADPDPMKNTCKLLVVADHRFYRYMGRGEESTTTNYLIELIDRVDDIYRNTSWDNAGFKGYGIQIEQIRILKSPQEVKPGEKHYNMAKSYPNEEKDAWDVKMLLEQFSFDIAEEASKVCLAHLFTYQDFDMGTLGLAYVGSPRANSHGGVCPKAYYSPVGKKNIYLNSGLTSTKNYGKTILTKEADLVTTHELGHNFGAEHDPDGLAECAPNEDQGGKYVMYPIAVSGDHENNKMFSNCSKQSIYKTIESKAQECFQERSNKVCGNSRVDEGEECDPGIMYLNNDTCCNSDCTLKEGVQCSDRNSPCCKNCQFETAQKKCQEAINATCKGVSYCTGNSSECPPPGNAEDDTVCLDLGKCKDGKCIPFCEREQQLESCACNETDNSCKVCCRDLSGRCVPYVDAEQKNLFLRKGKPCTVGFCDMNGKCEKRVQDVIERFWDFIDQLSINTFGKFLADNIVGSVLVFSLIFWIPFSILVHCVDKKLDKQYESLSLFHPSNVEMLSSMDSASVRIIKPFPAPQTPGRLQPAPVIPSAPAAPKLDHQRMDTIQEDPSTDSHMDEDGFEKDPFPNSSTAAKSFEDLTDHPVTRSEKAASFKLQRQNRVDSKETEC", "test": "exosite inhibitors of ADAM17, dose response, biochemical (AID 743260)"}, "[2]": {"test": "ADAM10 protease inhibitors, dose response, selectivity assay for ADAM17 exosite inhibitor project, biochemical, FRET peptide substrate, recombinant human ADAM10 (AID 743259);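 also: ADAM10 enzyme cleaving a FRET peptide substrate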"}, "[3]": {"test": "cytotoxicity toward NIH3T3 fibroblasts, dose response, counter-screen, cell-based, ATP luminescence, mouse fibroblasts (AID 2010);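 also: cells exposed to compound for about 90 hours before reading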", "assay_type": "functional"}, "[4]": {"test": "inhibitors of intracellular T. cruzi replication, confirmation, NIH3T3 host cells, beta-gal luminescence (AID 2044);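 also: luminescent beta-galactosidase reporter signal from transgenic T. cruzi replicating inside host cells; inhibitors lower the luminescence signal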", "assay_type": "functional, cell-based"}, "INS1": {"system": "INS1", "test": "beta cell apoptosis inhibitors, cytokine rescue, dose response, luminescence, retest (AID 449756);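 also: cell death triggered by IL-1 beta plus TNF-alpha plus IFN-gamma mixture; protective hits raise ATP signal compared with cytokine alone wells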", "assay_type": "functional, cell-based", "conditions": "Rattus norvegicus"}, "cells [5]": {"test": "cells"}, "[6]": {"test": "microbe, parasite or virus in culture", "assay_type": "functional", "conditions": "Mycobacterium tuberculosis"}, "[7]": {"test": "A549 cell cytotoxicity, dose response, cytotoxicity control, plate reader, cherry-pick, antagonist series (AID 743412)", "assay_type": "functional, cell-based"}, "[8]": {"test": "LGR2 antagonists, dose response, cell-based, HEK293, CRE-luciferase reporter, cherry pick, set 2 (AID 743343);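 also: transfected cells were stimulated with diluted bursicon conditioned medium after compound addition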", "assay_type": "functional"}, "[9]": {"test": "HEK293 cell cytotoxicity, dose response, cytotoxicity control, plate reader, cherry-picked samples (AID 743446)", "assay_type": "functional, cell-based"}, "[10]": {"test": "cytotoxicity in KRAS-transformed pancreatic duct cells, primary screen, cell-based, fluorescence, HTS (AID 431);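 also: cell line used: HPDE-C7K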", "assay_type": "functional", "conditions": "Homo sapiens"}, "[11]": {"test": "cytotoxicity in HPDE-C7 cells, cell-based, fluorescence, HTS (AID 430)", "assay_type": "functional", "conditions": "Homo sapiens"}, "[12]": {"test": "HepG2 cell cytotoxicity, dose response, cytotoxicity control, plate reader, cherry-pick, antagonist series (AID 743416)", "assay_type": "functional, cell-based"}, "[13]": {"molecular_target": "COUP transcription factor 2 (Homo sapiens, UniProt P24468)", "sequence (P24468 whole entry)": "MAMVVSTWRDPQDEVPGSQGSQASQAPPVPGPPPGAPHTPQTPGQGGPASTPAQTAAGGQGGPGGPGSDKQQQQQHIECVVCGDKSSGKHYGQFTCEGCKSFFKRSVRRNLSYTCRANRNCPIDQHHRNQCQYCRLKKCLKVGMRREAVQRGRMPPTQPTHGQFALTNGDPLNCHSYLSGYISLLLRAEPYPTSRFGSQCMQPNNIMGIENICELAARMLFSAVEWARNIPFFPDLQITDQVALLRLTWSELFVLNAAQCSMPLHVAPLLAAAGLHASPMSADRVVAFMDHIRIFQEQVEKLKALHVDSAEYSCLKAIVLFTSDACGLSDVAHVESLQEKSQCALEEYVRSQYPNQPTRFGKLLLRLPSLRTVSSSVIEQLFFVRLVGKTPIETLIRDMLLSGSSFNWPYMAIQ", "test": "Luminescence-based cell-based high throughput dose response assay to identify inhibitors of COUP-TFII (NR2F2).", "assay_type": "functional"}, "[14]": {"molecular_target": "T1, Nuclear receptor subfamily 0 group B member 1 (Homo sapiens, UniProt P51843)", "T1 sequence (P51843 whole entry)": "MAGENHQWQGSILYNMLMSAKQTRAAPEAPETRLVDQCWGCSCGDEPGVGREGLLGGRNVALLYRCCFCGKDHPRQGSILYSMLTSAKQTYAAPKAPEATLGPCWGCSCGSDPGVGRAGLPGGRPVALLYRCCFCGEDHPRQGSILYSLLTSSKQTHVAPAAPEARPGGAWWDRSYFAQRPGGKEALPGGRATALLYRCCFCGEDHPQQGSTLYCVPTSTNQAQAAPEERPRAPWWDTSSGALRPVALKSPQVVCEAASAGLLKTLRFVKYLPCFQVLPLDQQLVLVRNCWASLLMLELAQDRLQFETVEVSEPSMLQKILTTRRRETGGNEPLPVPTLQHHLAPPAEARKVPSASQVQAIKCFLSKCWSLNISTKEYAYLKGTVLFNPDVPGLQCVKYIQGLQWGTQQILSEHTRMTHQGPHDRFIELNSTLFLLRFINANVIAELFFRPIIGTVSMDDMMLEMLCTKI", "assay_type": "functional, cell-based"}, "cells [15]": {"test": "cells", "assay_type": "functional, cell-based"}, "[16]": {"molecular_target": "Sphingosine 1-phosphate receptor 2 (Homo sapiens, UniProt O95136)", "sequence (O95136 whole entry)": "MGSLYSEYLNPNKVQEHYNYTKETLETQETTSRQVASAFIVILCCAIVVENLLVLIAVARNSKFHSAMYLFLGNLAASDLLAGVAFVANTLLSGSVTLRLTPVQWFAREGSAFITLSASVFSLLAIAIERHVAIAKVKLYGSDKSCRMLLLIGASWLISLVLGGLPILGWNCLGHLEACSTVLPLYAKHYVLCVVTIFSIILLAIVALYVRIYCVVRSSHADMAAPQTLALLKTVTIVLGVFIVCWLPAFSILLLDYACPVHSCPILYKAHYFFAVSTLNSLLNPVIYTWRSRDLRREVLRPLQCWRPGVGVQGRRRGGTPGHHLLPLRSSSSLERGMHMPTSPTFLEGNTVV", "test": "Dose Response Cell Based Assay for Antagonists of the S1P2 Receptor. [Related pubchem assays: 856, 736 ]", "assay_type": "functional"}, "[17]": {"test": "Luminescence Cell-Based Dose Confirmation to Identify Activators of 5'UTR Stem-Loop Driven Alpha-Synuclein mRNA Translation in H4 Neuroglioblastoma Cells. [Related pubchem assays: 1829 (Project Summary), 1814 (Primary HTS)]", "assay_type": "functional"}, "H4": {"system": "H4", "test": "Luminescence Cell-Based Dose Response HTS to Identify Activators of 5'UTR Stem-Loop Driven Prion Protein mRNA Translation in H4 Neuroglioblastoma Cells. [Related pubchem assays: 1829 (Project Summary), 1814 (Primary HTS)]", "assay_type": "functional", "conditions": "Homo sapiens"}, "[18]": {"test": "Luminescence Cell-Based Dose Response to Identify Activators of Luciferase Translation or Activity in H4-C Neuroglioblastoma Cells. [Related pubchem assays: 1829 (Project Summary), 1814 (Primary HTS)]", "assay_type": "functional"}, "[19]": {"test": "Luminescence Cell-Based Dose Response to Identify Activators of 5'UTR Stem-Loop Driven Prion Protein mRNA Translation in H4-C Neuroglioblastoma Cells. [Related pubchem assays: 1829 (Project Summary), 1814 (Primary HTS)]", "assay_type": "functional"}, "[20]": {"test": "Luminescence Cell-Based Dose Response HTS to Identify Activators of Luciferase Translation or Activity in H4 […] Cells. [Related pubchem assays: 1829 (Project Summary), 1814 (Primary HTS)]", "assay_type": "functional"}, "[21]": {"test": "Luminescence Cell-Based Dose Confirmation HTS to Identify Activators of 5'UTR Stem-Loop Driven Alpha-Synuclein mRNA Translation in H4 Neuroglioblastoma Cells. [Related pubchem assays: 1829 (Project Summary), 1814 (Primary HTS)]", "assay_type": "functional"}, "[22]": {"test": "inhibitors of Vif binding to APOBEC3G peptide, primary screen, biochemical, TR-FRET, GST-Vif 1-94, biotin-A3G peptide, dose response retest (AID 1117319);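 also: TR-FRET signal of purified GST-Vif binding a biotinylated A3G peptide; inhibitors lower the FRET signal by blocking Vif and A3G binding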", "assay_type": "functional"}, "[23]": {"test": "ZM109 Env clade C HIV-1 fusion inhibitors, dose response, HeLa effector, CEM target cells, luciferase, cherry-pick (AID 652058)", "assay_type": "functional, cell-based"}, "[24]": {"test": "CEM21 lymphoblast cell cytotoxicity, dose response, cytotoxicity control for viral fusion inhibitor project, CellTiter-Glo luminescence, cherry-picked (AID 652042);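 also: potency for signal decrease meaning cytotoxicity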", "assay_type": "functional, cell-based"}, "[25]": {"test": "inhibitors of clade B AD8 Env fusion, dose response, cell-based, cherry-pick (AID 652062);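 also: potency is for inhibitors of fusion seen as a drop in luminescence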", "assay_type": "functional"}, "[26]": {"test": "inhibitors of HIV Env-driven cell fusion, dose response, cherry-pick (AID 652057)", "assay_type": "functional, cell-based"}},
  "note": "Active and inactive are the calls of the source.",
  "data": [
    {"smiles": "Cc1nc2ccc(NC(=O)c3ccc(S(=O)(=O)N(C)c4ccccc4)cc3)cc2s1", "values": [
      {"measurement": "IC50", "setting": "[1]", "value": "> 69.5 µM (inactive)"},
      {"measurement": "IC50", "setting": "[2]", "value": "> 69.5 µM (inactive)"}
    ]},
    {"smiles": "COc1ccc(-c2cc3ccccc3oc2=O)cc1NC(=O)c1ccc([N+](=O)[O-])o1", "values": [
      {"measurement": "EC50", "setting": "[3]", "value": "9.47 µM (active)"},
      {"measurement": "EC50", "setting": "[4]", "value": "< 0.1 µM (active)"},
      {"measurement": "AC50", "setting": "INS1", "value": "10.7 µM (active)"},
      {"measurement": "EC50", "setting": "cells [5]", "value": "0.262 µM (active)"},
      {"measurement": "CC50", "setting": "[6]", "value": "> 40 µM (active)"}
    ]},
    {"smiles": "Cc1ccc2nc(C(F)(F)F)c(C#N)c(N)c2c1", "values": [
      {"measurement": "AC50", "setting": "[7]", "value": "24.2 µM (active)"},
      {"measurement": "AC50", "setting": "[8]", "value": "22.9 µM (active)"},
      {"measurement": "AC50", "setting": "[9]", "value": "> 52 µM (inactive)"},
      {"measurement": "EC50", "setting": "[10]", "value": "7.2 µM (active)"},
      {"measurement": "EC50", "setting": "[11]", "value": "> 20 µM (not active)"},
      {"measurement": "AC50", "setting": "[12]", "value": "16 µM (active)"}
    ]},
    {"smiles": "CCNc1nc(-c2sc(NC(=O)C(C)(C)C)nc2C)c(-n2cc(-c3ccccc3)nn2)s1", "values": [
      {"measurement": "IC50", "setting": "[13]", "value": "10.7 µM (inactive)"}
    ]},
    {"smiles": "O=C(Nc1ccc(SC(F)(F)F)cc1)c1ccccn1", "values": [
      {"measurement": "IC50", "setting": "[14]", "value": "> 0.834 µM (active)"},
      {"measurement": "IC50", "setting": "cells [15]", "value": "> 67.5 µM (inactive)"}
    ]},
    {"smiles": "COC(=O)c1sc2cc(C(F)(F)F)cnc2c1-c1ccccn1", "values": [
      {"measurement": "IC50", "setting": "[16]", "value": "> 30 µM (not active)"}
    ]},
    {"smiles": "Cc1cccc(N2CCN(C(=O)c3[nH]c(C(F)(F)F)nc3-c3ccccc3)CC2)c1C", "values": [
      {"measurement": "IC50", "setting": "[14]", "value": "> 67.5 µM (inactive)"},
      {"measurement": "IC50", "setting": "cells [15]", "value": "> 67.5 µM (inactive)"}
    ]},
    {"smiles": "c1ccc2c(c1)Cn1nc(Cc3nc4c(s3)CCCC4)nc1-2", "values": [
      {"measurement": "EC50", "setting": "[17]", "value": "> 3.8 µM (not active)"},
      {"measurement": "EC50", "setting": "H4", "value": "10.3 µM (active)"},
      {"measurement": "EC50", "setting": "[18]", "value": "> 12 µM (not active)"},
      {"measurement": "EC50", "setting": "[19]", "value": "> 12 µM (not active)"},
      {"measurement": "EC50", "setting": "[20]", "value": "7.06 µM (active)"},
      {"measurement": "EC50", "setting": "[21]", "value": "< 0.1 µM (active)"}
    ]},
    {"smiles": "COC(=O)c1ccc(-n2nnnc2SCC(=O)Nc2cc(OC)ccc2OC)cc1", "values": [
      {"measurement": "IC50", "setting": "[22]", "value": "> 100 µM (active)"}
    ]},
    {"smiles": "COc1ccc(C(=O)Nc2nc(-c3ccc(S(=O)(=O)N4CCOCC4)cc3)cs2)cc1", "values": [
      {"measurement": "AC50", "setting": "[23]", "value": "0.664 µM (active)"},
      {"measurement": "AC50", "setting": "[24]", "value": "40.3 µM (active)"},
      {"measurement": "AC50", "setting": "[25]", "value": "7.62 µM (active)"},
      {"measurement": "AC50", "setting": "[26]", "value": "63.4 µM (active)"}
    ]}
  ]
}
